From PubChem BioAssay (NCI)
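Cells were grown in 96-well plates and exposed to each compound for 48 hours at five concentrations; endpoints were interpolated linearly between bracketing concentrations, or set to the highest concentration if not reached. GI50 is the concentration that inhibits growth by half. TGI: total growth inhibition.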

Assays:
Test in all cases: inhibition of tumour cell growth, NCI panel, 48 h
[1] = test system: M14 melanoma
[2] = test system: OVCAR-3 ovarian
[3] = test system: TK-10 renal
[4] = test system: EKVX NSCLC
[5] = test system: MALME-3M melanoma
[6] = test system: NCI-H522 lung
[7] = test system: LOX IMVI melanoma
[8] = test system: HOP-92 NSCLC
[9] = test system: RPMI-8226 leukemia
[10] = test system: HL-60(TB) leukemia

SMILES | TGI [1] | TGI [2] | TGI [3] | TGI [4] | TGI [5] | TGI [6] | TGI [7] | TGI [8] | TGI [9] | TGI [10] | GI50 [1] | GI50 [2] | GI50 [3] | GI50 [4] | GI50 [5] | GI50 [6] | GI50 [7] | GI50 [8] | GI50 [9] | GI50 [10]
O=C(CCc1nnc2s/c(=C\c3ccc4c(c3)OCO4)c(=O)n12)Nc1cc(Cl)ccc1Cl | > 100 µM | > 100 µM | > 100 µM | > 100 µM | > 100 µM | > 100 µM | > 100 µM | > 100 µM | > 100 µM | > 100 µM |  |  |  |  |  |  |  |  |  | 
CCCCCCCCCCCC1=NC(C)(C)CN1CCO | 3.74 µM | 11.3 µM | 28.9 µM | 29.5 µM | 29 µM | 13 µM | 4.65 µM | 8.11 µM | 7.46 µM | 13.7 µM | 1.92 µM | 5.87 µM | 10.8 µM | 10.7 µM | 10.2 µM | 4.57 µM | 1.97 µM | 1.29 µM | 2.3 µM | 3.3 µM
COc1cc(C(=O)NC2CCN(C)CC2)ccc1Nc1ncc2c(n1)N(C1CCCC1)CC(F)(F)C(=O)N2C | 5.09 µM | 3.9 µM | 14.4 µM | 17.5 µM | 10.5 µM | 2.92 µM | 2.37 µM | 1.7 µM | 8.33 µM | 0.0223 µM | < 0.0148 µM | < 0.01 µM | 1.39 µM | 0.245 µM | 2.64 µM | 0.0129 µM | < 0.0167 µM | 0.1 µM |  | < 0.01 µM
COc1cc(C2c3cc4c(cc3[C@H](NC(=O)c3cccs3)C3COC(=O)[C@H]23)OCO4)cc(OC)c1OC (some centres not stated) | 33.7 µM | > 100 µM | > 100 µM | > 100 µM | > 100 µM | 0.0213 µM | > 41 µM | 70.3 µM | 19.3 µM | < 0.0251 µM |  |  |  |  |  |  |  |  |  | 
Nc1ccccc1/C=N\Nc1ccccc1 | > 100 µM | > 100 µM | > 100 µM | > 100 µM | > 100 µM | > 100 µM | > 100 µM | > 100 µM | > 100 µM | 29.3 µM | 4.05 µM | 36.2 µM | > 100 µM | 77.1 µM | > 100 µM | > 100 µM | 1.29 µM | 6.27 µM | > 100 µM | 1.78 µM
COc1ccccc1CNCCCN1C(=O)c2ccc3c4c(ccc(c24)C1=O)C(=O)N(CCCNCCCCNCCCCN)C3=O | 4.68 µM | 5.93 µM | 51.7 µM |  | 2.48 µM | 6.07 µM | 4.76 µM | 8.66 µM | 9.62 µM | 5.71 µM | 1.87 µM | 0.475 µM | 3.71 µM |  | 0.971 µM | 1.62 µM | 0.941 µM | 1.87 µM | 1.83 µM | 1.28 µM
CCCN(CCC)c1ccc(C=O)cc1 | > 100 µM | > 87.4 µM | > 100 µM | > 100 µM | > 100 µM | > 100 µM | > 100 µM | 66.2 µM | > 100 µM | > 84 µM | > 100 µM | 24.9 µM | 37.5 µM | 30.2 µM | > 81.2 µM | 28 µM | 59.6 µM | 13 µM | 54.5 µM | 27 µM
